Source: US20240018153A1, “BENZENESULFONAMIDE DERIVATIVES AND USES THEREOF” (2692372 ONTARIO, INC., priority 2020, published 2024)

How the values were obtained:
Format in all cases: biochemical
[1] = biological target: EGFR (Homo sapiens (Human), UniProt P00533); assay: HTRF KinEASE-TK kinase assay, EGFR; conditions: 3 h preincubation; for remaining activity at 1 µM: 1 μM compound, read-out: % EGFR Remaining activity vs DMSO (1 μM, 3 h); for remaining activity at 10 µM: 10 μM compound, read-out: % EGFR Remaining activity vs DMSO (10 μM, 3 h); for IC50: dose response, read-out: EGFR Inhibition IC50
Experimental: Kinase activity was monitored using a HTRF® KinEASE-TK kit from Cisbio (62TK0PEC). The buffer used was 1× kinase buffer supplemented with 2 mM MnCl2, 5 mM MgCl2, 1 mM TCEP and 100× diluted Supplementary Enzyme Buffer. EGFR was purchased from Promega. […] Reaction with substrate was then initiated by adding biotinylated substrate and ATP. […] After 60 min of incubation, the fluorescence emission was measured at 620 nm and 665 nm. The ratio of Em 665 nm to Em 620 nm was proportional to the amount of substrate phosphorylated by the kinase.
For initial screening, enzymes were pre incubated with compounds at 2 different concentrations (1 and 10 uM final) and 0.5% DMSO.

[2] = biological target: JAK3 (Homo sapiens (Human), UniProt P52333); assay: HTRF KinEASE-TK kinase assay, JAK3; conditions: for remaining activity at 1 µM: read-out: % JAK3 Remaining activity vs DMSO (1 μM, 3 h); for remaining activity at 10 µM: read-out: % JAK3 Remaining activity vs DMSO (10 μM, 3 h)
Experimental: (§1) Kinase activity was monitored using a HTRF® KinEASE-TK kit from Cisbio (62TK0PEC). […] JAK-3 was purchased from Promega. 0.0133 ng/ul JAK3 (0.21 nM) was preincubated in the absence or presence of inhibitor at room temperature for 3 hours. Reaction with substrate was then initiated by adding biotinylated substrate and ATP. […] The reaction was terminated by adding 31.25 nM SA-XL665 and 100 fold diluted europium labelled antibody (Eu-Ab), diluted in 1× detection buffer that contained EDTA. After 60 min of incubation, the fluorescence emission was measured at 620 nm and 665 nm. The ratio of Em 665 nm to Em 620 nm was proportional to the amount of substrate phosphorylated by the kinase.

[3] = biological target: BTK (Homo sapiens (Human), UniProt Q06187); assay: HTRF KinEASE-TK kinase assay, BTK; conditions: 3 h preincubation; for remaining activity at 1 µM: 1 μM compound, read-out: % BTK Remaining activity vs DMSO (1 μM, 3 h); for remaining activity at 10 µM: 10 μM compound, read-out: % BTK Remaining activity vs DMSO (10 μM, 3 h)
Experimental: Kinase activity was monitored using a HTRF® KinEASE-TK kit from Cisbio (62TK0PEC). For BTK, the 1× kinase buffer was supplemented with 10 mM MnCl2, 5 mM MgCl2, 1 uM ATPγS, 1 mM TCEP and 100 fold diluted Supplementary Enzyme Buffer. BTK was purchased from Promega. […] Reaction with substrate was then initiated by adding biotinylated substrate and ATP and the reaction was allowed to proceed for 45 min. […] After 60 min of incubation, the fluorescence emission was measured at 620 nm and 665 nm. The ratio of Em 665 nm to Em 620 nm was proportional to the amount of substrate phosphorylated by the kinase.

[4] = biological target: BMX (Homo sapiens (Human), UniProt P51813); assay: HTRF KinEASE-TK kinase assay, BMX; conditions: 3 h preincubation; for remaining activity at 1 µM: 1 uM compound; for remaining activity at 10 µM: 10 uM compound
Experimental: as §1, with “BMX” for “JAK-3”, “0.333” for “0.0133”, “BMX (3.03” for “JAK3 (0.21”, “The reaction” for “Reaction”, “Reaction” for “The reaction”

[5] = biological target: FGFR4 (Homo sapiens (Human), UniProt P22455); assay: HTRF KinEASE-TK kinase assay, FGFR4; conditions: for remaining activity at 1 µM: read-out: % FGFR4 Remaining activity vs DMSO (1 μM, 3 h); for remaining activity at 10 µM: read-out: % FGFR4 Remaining activity vs DMSO (10 μM, 3 h); for IC50: dose response
Experimental: as §1, with “FGFR-4” for “JAK-3”, “0.333” for “0.0133”, “FGFR4 (5.12” for “JAK3 (0.21”

[6] = biological target: RIPK2 (Homo sapiens (Human), UniProt O43353); assay: In vitro RIPK2 inhibition; conditions: for remaining activity at 1 µM: read-out: % RIPK2 Remaining activity vs DMSO (1 μM, 3 h); for remaining activity at 10 µM: read-out: % RIPK2 Remaining activity vs DMSO (10 μM, 3 h)
Chain of RIPK2 (O43353 whole entry, species assumed): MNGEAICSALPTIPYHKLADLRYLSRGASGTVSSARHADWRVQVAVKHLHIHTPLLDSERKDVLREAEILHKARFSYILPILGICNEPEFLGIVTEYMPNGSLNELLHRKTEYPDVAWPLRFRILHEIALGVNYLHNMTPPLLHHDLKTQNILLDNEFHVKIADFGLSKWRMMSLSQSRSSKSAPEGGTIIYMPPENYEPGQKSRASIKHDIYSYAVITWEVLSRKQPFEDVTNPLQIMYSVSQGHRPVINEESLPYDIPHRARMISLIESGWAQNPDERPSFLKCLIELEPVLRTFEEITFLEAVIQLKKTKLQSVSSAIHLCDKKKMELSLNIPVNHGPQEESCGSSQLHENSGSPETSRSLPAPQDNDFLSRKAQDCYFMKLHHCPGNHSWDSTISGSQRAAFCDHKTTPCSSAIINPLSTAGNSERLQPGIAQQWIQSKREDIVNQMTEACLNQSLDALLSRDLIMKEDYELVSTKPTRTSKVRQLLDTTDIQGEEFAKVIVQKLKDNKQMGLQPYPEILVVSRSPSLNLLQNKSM

Chain of FGFR4 (P22455 22-802): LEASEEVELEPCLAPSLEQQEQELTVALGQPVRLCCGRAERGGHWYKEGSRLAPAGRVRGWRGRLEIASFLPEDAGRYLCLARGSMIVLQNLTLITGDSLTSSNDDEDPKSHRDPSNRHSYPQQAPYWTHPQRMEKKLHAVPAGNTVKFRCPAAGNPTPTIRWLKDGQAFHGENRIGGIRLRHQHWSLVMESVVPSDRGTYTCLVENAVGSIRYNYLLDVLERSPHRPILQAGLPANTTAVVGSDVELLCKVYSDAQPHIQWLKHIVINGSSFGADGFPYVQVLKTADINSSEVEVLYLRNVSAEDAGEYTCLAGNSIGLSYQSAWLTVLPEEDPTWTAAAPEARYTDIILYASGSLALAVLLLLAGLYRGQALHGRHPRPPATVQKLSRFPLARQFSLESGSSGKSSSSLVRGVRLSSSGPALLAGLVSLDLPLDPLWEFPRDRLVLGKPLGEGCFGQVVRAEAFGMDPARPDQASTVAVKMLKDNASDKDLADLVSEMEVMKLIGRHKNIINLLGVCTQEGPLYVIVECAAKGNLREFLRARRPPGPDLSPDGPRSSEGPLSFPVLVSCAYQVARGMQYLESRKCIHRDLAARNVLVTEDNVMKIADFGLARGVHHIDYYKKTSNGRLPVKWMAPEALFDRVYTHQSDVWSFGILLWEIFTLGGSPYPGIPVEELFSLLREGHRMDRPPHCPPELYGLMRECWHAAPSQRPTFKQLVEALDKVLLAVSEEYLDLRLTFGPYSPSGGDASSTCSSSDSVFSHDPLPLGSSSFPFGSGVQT
Chain of BTK (Q06187 whole entry): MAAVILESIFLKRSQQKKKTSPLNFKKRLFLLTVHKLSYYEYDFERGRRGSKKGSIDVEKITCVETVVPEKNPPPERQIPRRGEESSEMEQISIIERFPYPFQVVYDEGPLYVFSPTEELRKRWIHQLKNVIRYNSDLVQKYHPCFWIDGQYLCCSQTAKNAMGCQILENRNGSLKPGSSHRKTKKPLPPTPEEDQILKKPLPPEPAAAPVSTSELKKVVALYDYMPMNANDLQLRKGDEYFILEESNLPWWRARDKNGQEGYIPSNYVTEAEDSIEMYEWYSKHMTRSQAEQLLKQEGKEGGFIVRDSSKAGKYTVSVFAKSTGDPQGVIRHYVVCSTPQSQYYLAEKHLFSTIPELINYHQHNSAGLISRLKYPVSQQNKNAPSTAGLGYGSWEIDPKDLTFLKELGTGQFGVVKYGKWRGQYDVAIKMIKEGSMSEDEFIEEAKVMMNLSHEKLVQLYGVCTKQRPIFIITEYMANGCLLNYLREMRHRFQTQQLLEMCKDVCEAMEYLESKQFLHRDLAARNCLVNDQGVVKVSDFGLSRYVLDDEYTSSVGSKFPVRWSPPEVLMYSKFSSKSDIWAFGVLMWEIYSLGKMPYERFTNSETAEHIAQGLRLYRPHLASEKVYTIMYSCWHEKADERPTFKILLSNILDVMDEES
Chain of BMX (P51813 whole entry): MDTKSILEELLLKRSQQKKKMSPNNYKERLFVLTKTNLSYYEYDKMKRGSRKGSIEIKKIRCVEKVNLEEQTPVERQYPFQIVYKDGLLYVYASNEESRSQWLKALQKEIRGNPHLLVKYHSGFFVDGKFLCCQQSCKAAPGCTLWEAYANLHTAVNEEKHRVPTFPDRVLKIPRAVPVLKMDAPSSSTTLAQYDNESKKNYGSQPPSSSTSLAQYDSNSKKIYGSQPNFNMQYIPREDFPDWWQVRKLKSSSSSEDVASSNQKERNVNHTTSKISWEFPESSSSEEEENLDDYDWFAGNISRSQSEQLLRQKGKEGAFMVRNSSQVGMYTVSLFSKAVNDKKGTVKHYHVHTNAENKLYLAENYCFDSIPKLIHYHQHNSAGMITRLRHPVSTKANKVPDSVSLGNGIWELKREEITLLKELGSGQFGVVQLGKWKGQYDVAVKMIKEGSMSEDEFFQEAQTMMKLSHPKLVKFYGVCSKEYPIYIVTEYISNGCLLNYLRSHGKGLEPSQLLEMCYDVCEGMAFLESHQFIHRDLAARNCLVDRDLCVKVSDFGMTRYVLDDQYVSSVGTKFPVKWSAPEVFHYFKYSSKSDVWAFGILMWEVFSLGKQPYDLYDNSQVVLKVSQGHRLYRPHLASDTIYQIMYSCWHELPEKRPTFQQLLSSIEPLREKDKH
Chain of EGFR (P00533 25-1210): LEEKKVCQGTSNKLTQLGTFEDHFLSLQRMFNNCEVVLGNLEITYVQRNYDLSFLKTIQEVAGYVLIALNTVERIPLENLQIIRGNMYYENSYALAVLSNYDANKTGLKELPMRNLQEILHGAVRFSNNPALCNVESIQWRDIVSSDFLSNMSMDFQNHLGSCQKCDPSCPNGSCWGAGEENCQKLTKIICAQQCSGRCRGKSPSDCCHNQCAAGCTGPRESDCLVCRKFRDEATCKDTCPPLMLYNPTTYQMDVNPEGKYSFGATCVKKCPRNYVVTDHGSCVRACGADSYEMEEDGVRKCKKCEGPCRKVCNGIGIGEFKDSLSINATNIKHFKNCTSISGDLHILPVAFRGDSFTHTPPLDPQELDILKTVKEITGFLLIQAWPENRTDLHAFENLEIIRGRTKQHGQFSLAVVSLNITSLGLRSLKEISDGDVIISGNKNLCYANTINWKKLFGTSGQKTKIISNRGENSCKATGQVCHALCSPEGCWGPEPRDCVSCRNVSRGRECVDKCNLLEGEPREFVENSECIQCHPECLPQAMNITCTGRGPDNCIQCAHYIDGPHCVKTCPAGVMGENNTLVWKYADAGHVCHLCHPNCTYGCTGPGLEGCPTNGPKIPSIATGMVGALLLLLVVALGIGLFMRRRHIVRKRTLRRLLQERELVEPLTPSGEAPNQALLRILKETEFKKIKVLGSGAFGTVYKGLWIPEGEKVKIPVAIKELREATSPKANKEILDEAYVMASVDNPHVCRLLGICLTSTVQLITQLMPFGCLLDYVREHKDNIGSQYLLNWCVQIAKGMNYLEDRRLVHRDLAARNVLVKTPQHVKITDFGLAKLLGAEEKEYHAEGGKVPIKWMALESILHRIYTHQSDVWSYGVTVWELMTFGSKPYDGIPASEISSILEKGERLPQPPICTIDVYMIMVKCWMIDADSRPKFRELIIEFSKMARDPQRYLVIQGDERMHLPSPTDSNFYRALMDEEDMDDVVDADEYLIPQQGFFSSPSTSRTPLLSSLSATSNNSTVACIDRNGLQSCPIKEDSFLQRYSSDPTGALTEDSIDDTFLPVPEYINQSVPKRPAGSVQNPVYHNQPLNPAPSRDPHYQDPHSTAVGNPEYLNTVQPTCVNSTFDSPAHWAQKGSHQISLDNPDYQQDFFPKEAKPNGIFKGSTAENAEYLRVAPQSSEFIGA
Chain of JAK3 (P52333 781-1124): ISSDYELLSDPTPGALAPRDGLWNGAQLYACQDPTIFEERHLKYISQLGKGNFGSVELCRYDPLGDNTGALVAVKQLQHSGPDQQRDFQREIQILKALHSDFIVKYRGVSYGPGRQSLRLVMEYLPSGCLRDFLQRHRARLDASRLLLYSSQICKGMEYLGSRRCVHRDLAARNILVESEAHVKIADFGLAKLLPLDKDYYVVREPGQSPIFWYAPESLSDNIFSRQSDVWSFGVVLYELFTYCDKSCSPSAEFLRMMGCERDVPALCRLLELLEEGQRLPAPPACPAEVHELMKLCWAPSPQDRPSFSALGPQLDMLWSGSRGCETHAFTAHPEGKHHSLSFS

Row | SMILES | remaining activity at 1 µM [1] | remaining activity at 10 µM [1] | IC50 [1] | remaining activity at 1 µM [2] | remaining activity at 10 µM [2] | remaining activity at 1 µM [3] | remaining activity at 10 µM [3] | remaining activity at 1 µM [4] | remaining activity at 10 µM [4] | remaining activity at 1 µM [5] | remaining activity at 10 µM [5] | remaining activity at 1 µM [6] | remaining activity at 10 µM [6] | IC50 ([2]; dose response) | IC50 [5] | IC50 ([3]; dose response, read-out: BTK Inhibition IC50)
1 | O=S(=O)(Nc1cc2c(Nc3ccc(F)c(Cl)c3)ncnc2cc1O[C@H]1CCOC1)c1c(F)c(F)c(F)c(F)c1C(F)(F)F [Compound I-1, (S)—N-(4-((3-chloro-4-fluorophenyl)amino)-7-((tetrahydrofuran-3-yl)oxy)quinazolin-6-yl)-2,3,4,5-tetrafluoro-6-(trifluoromethyl)benzenesulfonamide] | < 50% | < 50% | < 1 µM | 50 to 90% | < 50% | 50 to 90% | < 50% | 50 to 90% | 50 to 90% | > 90% | > 90% |  |  |  |  | 
2 | CS(=O)(=O)c1c(F)c(F)c(F)c(F)c1C(=O)NCCNc1ncnc2[nH]ccc12 [Compound I-45, N-(2-((7H-pyrrolo[2,3-d]pyrimidin-4-yl)amino)ethyl)-2,3,4,5-tetrafluoro-6-(methylsulfonyl)benzamide] | > 90% | < 50% |  | < 50% | < 50% | < 50% | < 50% | < 50% | < 50% | > 90% | < 50% | < 50% | 50 to 90% |  |  | 
3 | CS(=O)(=O)c1c(F)c(F)c(F)c(F)c1C(=O)N1CC(n2nc(-c3ccc(Oc4ccccc4)cc3)c3c(N)ncnc32)C1 [Compound I-27, (3-(4-amino-3-(4-phenoxyphenyl)-1H-pyrazolo[3,4-d]pyrimidin-1-yl)azetidin-1-yl)(2,3,4,5-tetrafluoro-6-(methylsulfonyl)phenyl)methanone] | < 50% | < 50% | < 1 µM | < 50% | < 50% | < 50% | < 50% | < 50% | < 50% | 50 to 90% | < 50% | 50 to 90% | > 90% | < 1 µM |  | 
4 | CS(=O)(=O)c1c(F)c(F)c(F)c(F)c1CNCCn1nc(-c2ccc(Oc3ccccc3)cc2)c2c(N)ncnc21 [Compound I-44, 3-(4-phenoxyphenyl)-1-(2-((2,3,4,5-tetrafluoro-6-(methylsulfonyl)benzyl)amino)ethyl)-1H-pyrazolo[3,4-d]pyrimidin-4-amine] | > 90% | < 50% |  | > 90% | < 50% | < 50% | < 50% | < 50% | < 50% | > 90% | < 50% |  |  |  |  | 
5 | CN(C)S(=O)(=O)c1c(F)c(F)c(F)c(F)c1C(=O)N1CCC[C@@H](n2nc(-c3ccc(Oc4ccccc4)cc3)c3c(N)ncnc32)C1 [Compound I-31, (R)-2-(3-(4-amino-3-(4-phenoxyphenyl)-1H-pyrazolo[3,4-d]pyrimidin-1-yl)piperidine-1-carbonyl)-3,4,5,6-tetrafluoro-N,N-dimethylbenzenesulfonamide] | > 90% | > 90% |  | > 90% | > 90% |  |  | < 50% | < 50% | 50 to 90% | > 90% | 50 to 90% | > 90% |  |  | 
6 | COCCOc1ccc(Nc2ncc(F)c(Nc3cccc(NS(=O)(=O)c4c(F)c(F)c(F)c(F)c4CF)c3)n2)cc1 [Compound I-58, 2,3,4,5-tetrafluoro-N-(3-((5-fluoro-2-((4-(2-methoxyethoxy)phenyl)amino)pyrimidin-4-yl)amino)phenyl)-6-(fluoromethyl)benzenesulfonamide] | > 90% | > 90% |  | > 90% | < 50% | < 50% | < 50% | < 50% | < 50% | < 50% | < 50% |  |  |  | < 1 µM | 
7 | CN(CCn1nc(-c2ccc(Oc3ccccc3)cc2)c2c(N)ncnc21)C(=O)c1c(F)c(F)c(F)c(F)c1S(=O)(=O)N(C)C [Compound I-30, N-(2-(4-amino-3-(4-phenoxyphenyl)-1H-pyrazolo[3,4-d]pyrimidin-1-yl)ethyl)-2-(N,N-dimethylsulfamoyl)-3,4,5,6-tetrafluoro-N-methylbenzamide] | > 90% | 50 to 90% |  | > 90% | 50 to 90% | < 50% | < 50% | 50 to 90% | < 50% | < 50% | < 50% | 50 to 90% | > 90% |  | < 1 µM | 
8 | COCCOc1ccc(Nc2ncc(F)c(Nc3cccc(NC(=O)c4c(F)c(F)c(F)c(F)c4[S@+](C)[O-])c3)n2)cc1 (racemic) [Compound I-62, 2,3,4,5-tetrafluoro-N-(3-((5-fluoro-2-((4-(2-methoxyethoxy)phenyl)amino)pyrimidin-4-yl)amino)phenyl)-6-(methylsulfinyl)benzamide] |  |  |  |  |  |  |  |  |  |  |  |  |  |  | < 1 µM | < 1 µM
9 | CN(CCn1nc(-c2ccc(Oc3ccccc3)cc2)c2c(N)ncnc21)c1c(F)c(F)c(F)c(F)c1S(C)(=O)=O [Compound I-43, 1-(2-(methyl(2,3,4,5-tetrafluoro-6-(methylsulfonyl)phenyl)amino)ethyl)-3-(4-phenoxyphenyl)-1H-pyrazolo[3,4-d]pyrimidin-4-amine] | > 90% | 50 to 90% |  | > 90% | > 90% | > 90% | > 90% | 50 to 90% | > 90% | > 90% | > 90% |  |  |  |  | 
